What is called EC50 is the midpoint of the concentration-response curve. As usually defined, the CC50 is the concentration at which the toxic effect on the cells reaches its halfway point.

Series [1] relates to HBV (HepG2.117 cell line, inducibly HBV producing). The series can be described thus: Anti-HBV activity: intracellular HBV DNA by real-time PCR in HepG2.117 cells after 3 days of treatment. It is filed as cell-based, hepatitis B virus. The procedure, abridged:
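Antiviral effect is expressed through intracellular HBV DNA levels, determined by real-time PCR with a virus-specific probe. These levels were measured after 3 days of treatment with compound dilutions, in HepG2.117 cells induced to replicate HBV.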
Background: Quantitative PCR measures a nucleic acid by following its amplification.

In a further series the test system is HepG2 cells. The series is described as follows: in vitro. It is filed as cell-based. The procedure, abridged: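 Luminescent ATP quantitation served as the viability endpoint following a 3- or 4-day incubation with test compounds.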
The mark [2] stands for this setting: HepG2.117 cells, intracellular HBV DNA by real-time PCR, 3 days of treatment, mean value; read-out: EC50 (μM, mean value).
Where [3] appears, read: HepG2 or HepG2.117 cells, ATPlite, 3-days incubation (not marked with *), mean value, read-out: CC50 (μM, mean value).
The mark [4] stands for this setting: Hepatitis B virus, HepG2.117, 72 h, HepG2.117 cells, intracellular HBV DNA by real-time PCR, 3 days of treatment, mean value; read-out: EC50 (μM, mean value).
The mark [5] stands for this setting: HepG2.117 cells, 3 days of treatment, intracellular HBV DNA by real-time PCR; mean value; read-out: EC50 (μM, mean value).
Where [6] appears, read: 3-days incubation (unmarked values), HepG2 or HepG2.117 cells, ATPlite, mean value, read-out: CC50 (μM, mean value).

Where two headings read alike, the source gives them in different places.

Turning to `CNC(=O)c1ccc(-n2c(NC(C)C)nc3c(c2=O)C[C@@H](C)N(C(=O)c2ccc(Cl)c(Cl)c2)C3)c(C(C)C)c1` (single isomer, unassigned) [Compound C420a], the EC50 in series [1] (setting [2]) was 0.72 µM. The cytotoxic concentration (CC50) in the series on HepG2 cells (setting [3]) was determined as 21.7 µM.

Consider `CNC(=O)c1ccc(-n2c(NC(C)C)nc3c(c2=O)C[C@@H](C)N(C(=O)c2ccc(Cl)c(Cl)c2)C3)c(C(C)C)c1` (single isomer, unassigned) [Compound C420b], for which the concentration giving a half-maximal response (EC50) in series [1] (setting [2]) was determined as 0.35 µM. Further, in the series with HepG2 cells (setting [3]), the CC50 stood at 23.5 µM.

In the case of `CNc1noc2cc(-n3c(NC(C)C)nc4c(c3=O)C[C@@H](C)N(C(=O)c3ccc(Cl)c(Cl)c3)C4)c(C)cc12` (single isomer, unassigned) [Compound C447a], the concentration giving a half-maximal response (EC50) in series [1] (setting [2]) stood at 0.23 µM. The CC50 in the series with HepG2 cells (setting [3]) was above 50 µM.

In the case of `CNc1noc2cc(-n3c(NC(C)C)nc4c(c3=O)C[C@@H](C)N(C(=O)c3ccc(Cl)c(Cl)c3)C4)c(C)cc12` (single isomer, unassigned) [Compound C447b], the EC50 in series [1] (setting [2]) was 0.05 µM. Also, the CC50 in the series on HepG2 cells (setting [3]) is above 50 µM.

Take `Cc1c[nH]c(-c2ccc(-n3c(NC(C)C)nc4c(c3=O)C[C@@H](C)N(C(=O)c3ccc(Cl)c(Cl)c3)C4)c(Cl)c2)n1` (single isomer, unassigned) [Compound C455a]: the EC50 in series [1] (setting [4]) was 0.05 µM. The CC50 in the series on HepG2 cells (setting [3]) amounted to 17.6 µM.

On to `Cc1c[nH]c(-c2ccc(-n3c(NC(C)C)nc4c(c3=O)C[C@@H](C)N(C(=O)c3ccc(Cl)c(Cl)c3)C4)c(Cl)c2)n1` (single isomer, unassigned) [Compound C455b], for which the EC50 in series [1] (setting [2]) came out at 0.1 µM. The CC50 in the series on HepG2 cells (setting [3]) was above 50 µM.

For `CNC(=O)c1ccc(-n2c(NC(C)C)nc3c(c2=O)C[C@@H](C)N(C(=O)c2ccc(Cl)c(C(F)(F)F)c2)C3)c(Cl)c1` (single isomer, unassigned) [Compound C639b], the EC50 in series [1] (setting [2]) amounted to 0.02 µM. The CC50 with HepG2 cells (setting [3]) amounted to 25.4 µM.

Turning to `CNC(=O)c1ccc(-n2c(NC(C)C)nc3c(c2=O)C[C@@H](C)N(C(=O)c2ccc(Cl)c(C(F)(F)F)c2)C3)c(OC)c1` (single isomer, unassigned) [Compound C643a], in series [1] (setting [2]), the EC50 is 0.04 µM. Also, in the series on HepG2 cells (setting [3]), the CC50 is above 50 µM.

Consider `CNC(=O)c1ccc(-n2c(NC(C)C)nc3c(c2=O)C[C@@H](C)N(C(=O)c2ccc(Cl)c(C(F)(F)F)c2)C3)c(OC)c1` (single isomer, unassigned) [Compound C643b], for which, in series [1] (setting [2]), the 50% effective concentration (EC50) was determined as 0.05 µM. Moreover, in the series on HepG2 cells (setting [3]), the CC50 was above 50 µM.

Consider `CNC(=O)c1ccc(-n2c(NC(C)C)nc3c(c2=O)C[C@@H](C)N(C(=O)c2ccc(Cl)c(C(F)(F)F)c2)C3)c(C2CC2)c1` (single isomer, unassigned) [Compound C661a], for which, in series [1] (setting [2]), the concentration giving a half-maximal response (EC50) was determined as 0.07 µM. In addition, in the series on HepG2 cells (setting [3]), the CC50 is above 50 µM.

Consider `CNC(=O)c1ccc(-n2c(NC(C)C)nc3c(c2=O)C[C@@H](C)N(C(=O)c2ccc(Cl)c(C(F)(F)F)c2)C3)c(C2CC2)c1` (single isomer, unassigned) [Compound C661b], for which the EC50 in series [1] (setting [2]) worked out at 0.06 µM. Also, the CC50 with HepG2 cells (setting [3]) was found to be 25.4 µM.

In the case of `CNC(=O)c1ccc(-n2c(NC(C)C)nc3c(c2=O)C[C@@H](C)N(C(=O)c2ccc(Cl)c(C(F)(F)F)c2)C3)c(C(F)F)c1` (single isomer, unassigned) [Compound C669b], the EC50 in series [1] (setting [2]) was 0.04 µM. In the series on HepG2 cells (setting [3]), the CC50 is above 50 µM.

Turning to `CC(C)Nc1nc2c(c(=O)n1-c1ccc(C(=O)NC3CC3)cc1Cl)C[C@@H](C)N(C(=O)c1ccc(Cl)c(C(F)(F)F)c1)C2` (single isomer, unassigned) [Compound C673b], the EC50 in series [1] (setting [2]) worked out at 0.03 µM. In addition, in the series on HepG2 cells (setting [3]), the CC50 was above 50 µM.

Turning to `CNC(=O)c1ccc(-n2c(N[C@@H](C)C3CC3)nc3c(c2=O)C[C@@H](C)N(C(=O)c2ccc(Cl)c(C(F)(F)F)c2)C3)c(Cl)c1` (single isomer, unassigned) [Compound C676b], the EC50 in series [1] (setting [2]) is 0.02 µM. Also, in the series on HepG2 cells (setting [3]), the half-maximal cytotoxic concentration (CC50) is 28.7 µM.

With `COc1cc(C(=O)NC2CC2)ccc1-n1c(NC(C)C)nc2c(c1=O)C[C@@H](C)N(C(=O)c1ccc(Cl)c(C(F)(F)F)c1)C2` (single isomer, unassigned) [Compound C678b], the EC50 in series [1] (setting [2]) came to 0.04 µM. Moreover, in the series on HepG2 cells (setting [3]), the CC50 came out at 44.1 µM.

Regarding `CNC(=O)c1ccc(-n2c(NC(C)C)nc3c(c2=O)C[C@@H](C)N(C(=O)c2ccc(Cl)c(C(F)F)c2)C3)c(Cl)c1` (single isomer, unassigned) [Compound C685b], the EC50 in series [1] (setting [2]) was 0.03 µM. Moreover, the CC50 in the series with HepG2 cells (setting [3]) is above 50 µM.

With `CNC(=O)c1ccc(-n2c(N3CC4CC3C4)nc3c(c2=O)C[C@@H](C)N(C(=O)c2ccc(Cl)c(C(F)(F)F)c2)C3)c(Cl)c1` (single isomer, unassigned) [Compound C701b], the EC50 in series [1] (setting [5]) was 0.03 µM. Moreover, in the series on HepG2 cells (3-days incubation (unmarked values), HepG2 or HepG2.117 cells, ATPlite viability, mean value, read-out: CC50 (μM, mean value)), the CC50 worked out at 25.4 µM.

On to `CC(C)Nc1nc2c(c(=O)n1-c1ccc(S(C)(=O)=O)cc1)C[C@@H](C)N(C(=O)c1ccc(Cl)c(Cl)c1)C2` [Compound C142, (6R)-7-(3,4-dichlorobenzoyl)-3-[4-(methanesulfonyl)phenyl]-6-methyl-2-[(propan-2-yl)amino]-5,6,7,8-tetrahydropyrido[3,4-d]pyrimidin-4(3H)-one], for which, in series [1] (setting [5]), the EC50 turned out to be 0.12 µM. The half-maximal cytotoxic concentration (CC50) with HepG2 cells (setting [6]) is above 50 µM.

With `CNC(=O)c1ccc(-n2c(NC(C)C)nc3c(c2=O)C[C@@H](C)N(C(=O)c2ccc(Cl)c(Cl)c2)C3)c(C)c1` [Compound C300b, 4-[(6R)-7-(3,4-dichlorobenzoyl)-6-methyl-4-oxo-2-[(propan-2-yl)amino]-5,6,7,8-tetrahydropyrido[3,4-d]pyrimidin-3(4H)-yl]-N,3-dimethylbenzamide], the EC50 in series [1] (setting [5]) was found to be 0.09 µM. Also, in the series on HepG2 cells (setting [6]), the 50% cytotoxic concentration (CC50) was above 50 µM.

With `CNC(=O)c1ccc(-n2c(N[C@@H](C)c3ccccc3)nc3c(c2=O)C[C@@H](C)N(C(=O)c2ccc(Cl)c(Cl)c2)C3)c(Cl)c1` [Compound C386], the EC50 in series [1] (setting [2]) came to 0.12 µM. Further, in the series with HepG2 cells (setting [3]), the CC50 was above 50 µM.

`CNC(=O)c1ccc(-n2c(N[C@@H](C)C3CC3)nc3c(c2=O)C[C@@H](C)N(C(=O)c2ccc(Cl)c(Cl)c2)C3)c(Cl)c1` [Compound C387]: in series [1] (setting [2]), the EC50 worked out at 0.06 µM. The CC50 in the series on HepG2 cells (setting [3]) was found to be 38 µM.

With `CC(C)Nc1nc2c(c(=O)n1-c1ccc(-c3ncc[nH]3)cc1Cl)C[C@@H](C)N(C(=O)c1ccc(Cl)c(Cl)c1)C2` [Compound C393], the concentration for a half-maximal effect (EC50) in series [1] (setting [4]) came out at 0.17 µM. In addition, the CC50 in the series on HepG2 cells (setting [3]) stood at 24.1 µM.

Take `CNC(=O)c1ccc(-n2c(OC(C)C)nc3c(c2=O)C[C@@H](C)N(C(=O)c2ccc(Cl)c(Cl)c2)C3)c(Cl)c1` [Compound C403b]: the EC50 in series [1] (setting [2]) came to 0.08 µM. Moreover, the CC50 in the series on HepG2 cells (setting [3]) came to 31.1 µM.

Consider `CNC(=O)c1ccc(-n2c(N[C@H](C)c3ccc(OC(F)F)cc3)nc3c(c2=O)C[C@@H](C)N(C(=O)c2ccc(Cl)c(Cl)c2)C3)cc1` [Compound C411b], for which the EC50 in series [1] (setting [2]) turned out to be 0.07 µM. For the same compound, the CC50 with HepG2 cells (setting [3]) turned out to be 42.1 µM.

In the case of `CNC(=O)c1ccc(-n2c(N[C@H]3C[C@@H]3c3ccc(OC)cc3)nc3c(c2=O)C[C@@H](C)N(C(=O)c2ccc(Cl)c(Cl)c2)C3)cc1` [Compound C452b], the EC50 in series [1] (setting [2]) is above 10 µM. Further, the CC50 with HepG2 cells (setting [3]) is above 50 µM.

With `CNC(=O)c1ccc(-n2c(NCc3nc(-c4ccccc4)n[nH]3)nc3c(c2=O)C[C@@H](C)N(C(=O)c2ccc(Cl)c(Cl)c2)C3)cc1` [Compound C538], the EC50 in series [1] (setting [2]) came out at 20.6 µM. In addition, the CC50 in the series on HepG2 cells (setting [3]) was above 50 µM.

On to `CNC(=O)c1cnc(-n2c(N[C@@H](C)c3ccc(OC(F)(F)F)cc3)nc3c(c2=O)C[C@@H](C)N(C(=O)c2ccc(Cl)c(Cl)c2)C3)cn1` [Compound C617], for which the EC50 in series [1] (setting [2]) was 0.08 µM. Further, the CC50 in the series with HepG2 cells (setting [3]) is above 50 µM.

For `CNC(=O)[C@H]1CC[C@@H](n2c(N[C@H](C)c3ccc(OC(F)(F)F)cc3)nc3c(c2=O)C[C@@H](C)N(C(=O)c2ccc(Cl)c(Cl)c2)C3)CC1` [Compound C636, (1R,4s)-4-((R)-7-(3,4-dichlorobenzoyl)-6-methyl-4-oxo-2-(((S)-1-(4-(trifluoromethoxy)phenyl)ethyl)amino)-5,6,7,8-tetrahydropyrido[3,4-d]pyrimidin-3(4H)-yl)-N-methylcyclohexane-1-carboxamide], the EC50 in series [1] (setting [2]) is 0.23 µM. Moreover, the CC50 with HepG2 cells is above 35 µM.

Source of the values: patent US20230091047A1 (priority 2019, published 2023).
